Where “and” joins values, the source holds several entries; their conditions need not be identical. Equal values may be shown once.
Legend:
[1] = system: Brassica napus (Nexera canola, BRSNN-NEX); experiment: Greenhouse postemergence application, visual injury after 20-22 d, BRSNN-NEX
Description: (§1) Seeds of the desired test plant species were planted in Sun Gro MetroMix® 306 planting mixture, which typically has a pH of 6.0 to 6.8 and an organic matter content of about 30 percent, in plastic pots with a surface area of 103.2 square centimeters (cm^2). […] The plants were grown for 7-36 days (d) in a greenhouse with an approximate 14-hour (h) photoperiod which was maintained at about 23° C. during the day and 22° C. during the night. Nutrients and water were added on a regular basis and supplemental lighting was provided with overhead metal halide 1000-Watt lamps as necessary. The plants were employed for testing when they reached the second or third true leaf stage.
(§2) An aliquot of formulated benzyl 4-amino-3-chloro-6-(4-chloro-2-fluoro-3-methoxyphenyl)-5-fluoropyridine-2-carboxylate (florpyrauxifen-benzyl; 300 grams active ingredient per liter (g ai/L) suspension concentrate (SC)) was placed in a 25 mL glass vial and diluted in a volume of 1.25% (v/v) aqueous Agri-dex crop oil concentrated to obtain a stock solution. […] The concentrated stock solutions were diluted with an aqueous mixture of 1.25% v/v of aqueous Agri-dex crop oil concentrate to provide the appropriate application rates. Compound requirements are based upon a 12 milliliter (mL) application volume at a rate of 187 liters per hectare (L/ha). Stock solutions of the formulated materials were prepared following the same procedure. Spray solutions of the compound mixtures were prepared by adding the stock solutions to the appropriate amount of dilution solution to form a 12 mL spray solution. Formulated compounds were applied to the plant material with an overhead Mandel track sprayer equipped with 8002E nozzles calibrated to deliver 187 L/ha over an application area of 0.503 square meters (m^2) at a spray height of 18 inches (43 centimeters (cm)) above average plant canopy. Control plants were sprayed in the same manner with the solvent blank.
(§3) The treated plants and control plants were placed in a greenhouse as described above and watered by sub-irrigation to prevent wash-off of the test compounds. After 20-22 d, the condition of the test plants as compared with that of the control plants was determined visually and scored on a scale of 0 to 100 percent where 0 corresponds to no injury and 100 corresponds to complete kill. Colby's equation was used to determine the herbicidal effects expected from the mixtures.
(§4) Benzyl 4-amino-3-chloro-6-(4-chloro-2-fluoro-3-methoxyphenyl)-5-fluoropyridine-2-carboxylate (florpyrauxifen-benzyl, 300 g ai/L SC) was combined in two-, three-, and four-way mixtures with one or more of the following: clopyralid-olamine (as Lontrel™ 35A Herbicidal Concentrate), quinclorac (as Facet 75DF), isoxadifen-ethyl (100 g/L SC), cloquintocet-mexyl (120 g/L EC) or mefenpyr-diethyl (as mefenpyr-diethyl 15WP). The mixtures were applied to kale/Chinese kale (Brassica alboglabra, BRSAG), Juncea canola or brown mustard (Brassica juncea, BRSJU), rutabaga (Brassica napus var. napobrassica, BRSNA), all varieties of canola and oilseed rape (Brassica napus, BRSNN), Nexera™ canola (Brassica napus, BRSNN-NEX), winter oilseed rape (Brassica napus, BRSNW), Roundup Ready® canola (Brassica napus, RR-BRSNN), and turnip or Polish canola (Brassica rapa, BRSRR), and the phytotoxicity of the compositions was measured.
(§5) Colby's equation was used to determine the herbicidal effects expected from the mixtures evaluated in the described trials (Colby, S. R. Calculation of the synergistic and antagonistic response of herbicide combinations. Weeds 1967, 15, 20-22.).
(§6) The following equation was used to calculate the expected activity of mixtures containing two active ingredients, A and B: Expected=A+B−(A×B/100) • A=observed efficacy of active ingredient A at the same concentration as used in the mixture; • B=observed efficacy of active ingredient B at the same concentration as used in the mixture.

[2] = system: Brassica napus (all varieties of canola and oilseed rape, BRSNN); experiment: Greenhouse postemergence application, visual injury after 20-22 d, BRSNN
Description: as §1, §2, §3, §4, §5, §6

[3] = system: Brassica napus (winter oilseed rape, BRSNW); experiment: Greenhouse postemergence application, visual injury after 20-22 d, BRSNW
Description: as §1, §2, §3, §4, §5, §6

[4] = system: Brassica napus var. napobrassica (rutabaga, BRSNA); experiment: Greenhouse postemergence application, visual injury after 20-22 d, BRSNA
Description: as §1, §2, §3, §4, §5, §6

[5] = system: Brassica alboglabra (kale/Chinese kale, BRSAG); experiment: Greenhouse postemergence application, visual injury after 20-22 d, BRSAG
Description: as §1, §2, §3, §4, §5, §6

[6] = florpyrauxifen-benzyl 2.5 g ai/ha alone
[7] = florpyrauxifen-benzyl 5 g ai/ha alone
[8] = florpyrauxifen-benzyl 10 g ai/ha alone
[9] = florpyrauxifen-benzyl alone 2.5 g ai/ha
[10] = florpyrauxifen-benzyl alone 5 g ai/ha
[11] = florpyrauxifen-benzyl alone 10 g ai/ha
[12] = postemergence application, greenhouse, application rate (g ai/ha) varies
[13] = isoxadifen-ethyl 5 g ai/ha alone
[14] = isoxadifen-ethyl 10 g ai/ha alone
[15] = isoxadifen-ethyl 20 g ai/ha alone
[16] = isoxadifen-ethyl 40 g ai/ha alone

COc1c(Cl)ccc(-c2nc(C(=O)OCc3ccccc3)c(Cl)c(N)c2F)c1F [Florpyrauxifen-benzyl, benzyl 4-amino-3-chloro-6-(4-chloro-2-fluoro-3-methoxyphenyl)-5-fluoropyridine-2-carboxylate]
18%: % Visual Injury Obs ([2]; BRSNN, 10 g ai/ha) | Obs % visual injury ([2]; BRSNN, florpyrauxifen-benzyl alone 10 g ai/ha) | % Visual Injury BRSNN Obs [2, 8] | % Visual Injury Obs [2, 8] | Obs % visual injury BRSNN [2, 11] | % Visual Injury Obs ([3]; BRSNW, 10 g ai/ha) | Obs % visual injury ([3]; BRSNW, florpyrauxifen-benzyl alone 10 g ai/ha) | % Visual Injury BRSNW Obs [3, 8] | % Visual Injury Obs [3, 8] | Obs % visual injury BRSNW [3, 11]
3%: % Visual Injury Obs ([5]; BRSAG, 5 g ai/ha) | Obs % visual injury ([5]; BRSAG, florpyrauxifen-benzyl alone 5 g ai/ha) | % Visual Injury BRSAG Obs [5, 7] | % Visual Injury Obs [5, 7] | Obs % visual injury BRSAG [5, 10]
12%: % Visual Injury Obs ([1]; BRSNN-NEX, 5 g ai/ha) | Obs % visual injury ([1]; BRSNN-NEX, florpyrauxifen-benzyl alone 5 g ai/ha) | % Visual Injury BRSNN-NEX Obs [1, 7] | % Visual Injury Obs [1, 7] | Obs % visual injury BRSNN-NEX [1, 10] | % Visual Injury Obs ([2]; BRSNN, 5 g ai/ha) | Obs % visual injury ([2]; BRSNN, florpyrauxifen-benzyl alone 5 g ai/ha) | % Visual Injury BRSNN Obs [2, 7] | % Visual Injury Obs [2, 7] | Obs % visual injury BRSNN [2, 10]
4%: % Visual Injury Obs ([4]; BRSNA, 2.5 g ai/ha) | % Visual Injury Obs ([4]; BRSNA, 5 g ai/ha) | Obs % visual injury ([4]; BRSNA, florpyrauxifen-benzyl alone 2.5 g ai/ha) | Obs % visual injury ([4]; BRSNA, florpyrauxifen-benzyl alone 5 g ai/ha) | % Visual Injury BRSNA Obs [4, 6] | % Visual Injury Obs [4, 6] | % Visual Injury BRSNA Obs [4, 7] | % Visual Injury Obs [4, 7] | Obs % visual injury BRSNA [4, 9] | Obs % visual injury BRSNA [4, 10]
19%: % Visual Injury Obs ([1]; BRSNN-NEX, 10 g ai/ha) | Obs % visual injury ([1]; BRSNN-NEX, florpyrauxifen-benzyl alone 10 g ai/ha) | % Visual Injury BRSNN-NEX Obs [1, 8] | % Visual Injury Obs [1, 8] | Obs % visual injury BRSNN-NEX [1, 11]
3% and 7% and 5%: % Visual Injury BRSAG Obs [5, 12]
5%: % Visual Injury Obs ([5]; BRSAG, 2.5 g ai/ha) | Obs % visual injury ([5]; BRSAG, florpyrauxifen-benzyl alone 2.5 g ai/ha) | % Visual Injury BRSAG Obs [5, 6] | % Visual Injury Obs [5, 6] | Obs % visual injury BRSAG [5, 9]
13%: % Visual Injury Obs ([3]; BRSNW, 5 g ai/ha) | Obs % visual injury ([3]; BRSNW, florpyrauxifen-benzyl alone 5 g ai/ha) | % Visual Injury BRSNW Obs [3, 7] | % Visual Injury Obs [3, 7] | Obs % visual injury BRSNW [3, 10] | % Visual Injury Obs ([4]; BRSNA, 10 g ai/ha) | Obs % visual injury ([4]; BRSNA, florpyrauxifen-benzyl alone 10 g ai/ha) | % Visual Injury BRSNA Obs [4, 8] | % Visual Injury Obs [4, 8] | Obs % visual injury BRSNA [4, 11]
7%: % Visual Injury Obs ([1]; BRSNN-NEX, 2.5 g ai/ha) | Obs % visual injury ([1]; BRSNN-NEX, florpyrauxifen-benzyl alone 2.5 g ai/ha) | % Visual Injury BRSNN-NEX Obs [1, 6] | % Visual Injury Obs [1, 6] | Obs % visual injury BRSNN-NEX [1, 9] | % Visual Injury Obs ([2]; BRSNN, 2.5 g ai/ha) | Obs % visual injury ([2]; BRSNN, florpyrauxifen-benzyl alone 2.5 g ai/ha) | % Visual Injury BRSNN Obs [2, 6] | % Visual Injury Obs [2, 6] | Obs % visual injury BRSNN [2, 9] | % Visual Injury Obs ([5]; BRSAG, 10 g ai/ha) | Obs % visual injury ([5]; BRSAG, florpyrauxifen-benzyl alone 10 g ai/ha) | % Visual Injury BRSAG Obs [5, 8] | % Visual Injury Obs [5, 8] | Obs % visual injury BRSAG [5, 11]
8%: % Visual Injury Obs ([3]; BRSNW, 2.5 g ai/ha) | Obs % visual injury ([3]; BRSNW, florpyrauxifen-benzyl alone 2.5 g ai/ha) | % Visual Injury BRSNW Obs [3, 6] | % Visual Injury Obs [3, 6] | Obs % visual injury BRSNW [3, 9]
8% and 13% and 18%: % Visual Injury BRSNW Obs [3, 12]
4% and 13%: % Visual Injury BRSNA Obs [4, 12]

CCOC(=O)C1=NOC(c2ccccc2)(c2ccccc2)C1 [Isoxadifen-ethyl, ethyl 4,5-dihydro-5,5-diphenyl-1,2-oxazole-3-carboxyalte]
0%: % Visual Injury Obs ([1]; BRSNN-NEX, 5 g ai/ha) | % Visual Injury Obs ([1]; BRSNN-NEX, 10 g ai/ha) | % Visual Injury Obs ([1]; BRSNN-NEX, 20 g ai/ha) | % Visual Injury Obs ([1]; BRSNN-NEX, 40 g ai/ha) | Obs % visual injury ([1]; BRSNN-NEX, partner alone 5 g ai/ha) | Obs % visual injury ([1]; BRSNN-NEX, partner alone 10 g ai/ha) | Obs % visual injury ([1]; BRSNN-NEX, partner alone 20 g ai/ha) | Obs % visual injury ([1]; BRSNN-NEX, partner alone 40 g ai/ha) | % Visual Injury Obs [1, 13] | % Visual Injury Obs [1, 14] | % Visual Injury Obs [1, 15] | % Visual Injury Obs [1, 16] | % Visual Injury BRSNN-NEX Obs [1, 12] | % Visual Injury Obs ([2]; BRSNN, 5 g ai/ha) | % Visual Injury Obs ([2]; BRSNN, 10 g ai/ha) | % Visual Injury Obs ([2]; BRSNN, 20 g ai/ha) | % Visual Injury Obs ([2]; BRSNN, 40 g ai/ha) | Obs % visual injury ([2]; BRSNN, partner alone 5 g ai/ha) | Obs % visual injury ([2]; BRSNN, partner alone 10 g ai/ha) | Obs % visual injury ([2]; BRSNN, partner alone 20 g ai/ha) | Obs % visual injury ([2]; BRSNN, partner alone 40 g ai/ha) | % Visual Injury Obs [2, 13] | % Visual Injury Obs [2, 14] | % Visual Injury Obs [2, 15] | % Visual Injury Obs [2, 16] | % Visual Injury BRSNN Obs [2, 12] | % Visual Injury Obs ([3]; BRSNW, 5 g ai/ha) | % Visual Injury Obs ([3]; BRSNW, 10 g ai/ha) | % Visual Injury Obs ([3]; BRSNW, 20 g ai/ha) | % Visual Injury Obs ([3]; BRSNW, 40 g ai/ha) | Obs % visual injury ([3]; BRSNW, partner alone 5 g ai/ha) | Obs % visual injury ([3]; BRSNW, partner alone 10 g ai/ha) | Obs % visual injury ([3]; BRSNW, partner alone 20 g ai/ha) | Obs % visual injury ([3]; BRSNW, partner alone 40 g ai/ha) | % Visual Injury Obs [3, 13] | % Visual Injury Obs [3, 14] | % Visual Injury Obs [3, 15] | % Visual Injury Obs [3, 16] | % Visual Injury BRSNW Obs [3, 12] | % Visual Injury Obs ([4]; BRSNA, 5 g ai/ha) | % Visual Injury Obs ([4]; BRSNA, 10 g ai/ha) | % Visual Injury Obs ([4]; BRSNA, 20 g ai/ha) | % Visual Injury Obs ([4]; BRSNA, 40 g ai/ha) | Obs % visual injury ([4]; BRSNA, partner alone 5 g ai/ha) | Obs % visual injury ([4]; BRSNA, partner alone 10 g ai/ha) | Obs % visual injury ([4]; BRSNA, partner alone 20 g ai/ha) | Obs % visual injury ([4]; BRSNA, partner alone 40 g ai/ha) | % Visual Injury Obs [4, 13] | % Visual Injury Obs [4, 14] | % Visual Injury Obs [4, 15] | % Visual Injury Obs [4, 16] | % Visual Injury BRSNA Obs [4, 12] | % Visual Injury Obs ([5]; BRSAG, 5 g ai/ha) | % Visual Injury Obs ([5]; BRSAG, 10 g ai/ha) | % Visual Injury Obs ([5]; BRSAG, 20 g ai/ha) | % Visual Injury Obs ([5]; BRSAG, 40 g ai/ha) | Obs % visual injury ([5]; BRSAG, partner alone 5 g ai/ha) | Obs % visual injury ([5]; BRSAG, partner alone 10 g ai/ha) | Obs % visual injury ([5]; BRSAG, partner alone 20 g ai/ha) | Obs % visual injury ([5]; BRSAG, partner alone 40 g ai/ha) | % Visual Injury Obs [5, 13] | % Visual Injury Obs [5, 14] | % Visual Injury Obs [5, 15] | % Visual Injury Obs [5, 16] | % Visual Injury BRSAG Obs [5, 12]

From patent US10219513B2, “Safening 4-amino-3-chloro-6-(4-chloro-2-fluoro-3-methoxyphenyl)-5-fluoropyridine-2-carboxylic acid compositions in Brassica species and methods of use thereof” (Dow AgroSciences LLC, priority 2016, dated 2019)
